SMILES strings stand for the structures. Where two headings read alike, the source gives them in different places.

The target in one data set is PI 3-kinase. The conditions noted are these: cited from earlier work; for fold less effective than wortmannin towards PI 3-kinase: relative to wortmannin.
The next data set addresses T1, DNA-PKcs (Homo sapiens, UniProt P78527).
T1 construct: we used nuclear extract for our pull-down experiments; endogenous in cells
Kind of data set: Streptavidin-sepharose pull-down from nuclear extract, DNA-PKcs. Format: binding. The conditions noted are these: HeLa nuclear extract; 150 μM wortmannin or 1 mM ATP. The method, then:
(§1) For the competition with ATP, ATP was directly added to a final concentration of 1 mM ATP.
(§2) To determine which PIK-related kinases could be pulled-down with BW, we performed several affinity precipitations after incubation with BW concentrations ranging from 0.5-50 μM. As controls, we used the […] compound (negative) and nuclear extracts (positive). We probed a Western blot for the precipitation of ATR, ATM and DNA-PKcs and received a pattern of different sensibility that is related to the IC50s observed in vitro. DNA-PKcs is the most sensitive member to precipitation with BW of the PIK-related kinases we tested and can be precipitated at concentrations as low as 0.5 μM. ATM also seems to be more sensitive to precipitation than ATR, and starts to give a signal at 2 μM. ATR is the least sensitive kinase to precipitation tested, and starts to pull-down at 10 μM.
(§3) Therefore, we performed pull-down reactions with 30 μM biotin-wortmannin using HeLa nuclear extract. […] The proteins that were pull-down were analyzed via Western blot detecting DNA-PKcs, ATM and biotin-wortmannin.

In another data set the target is T2, ATM (Homo sapiens, UniProt Q13315).
T2 construct: we used nuclear extract for our pull-down experiments; endogenous in cells
As to the kind of experiment: Streptavidin-sepharose pull-down from nuclear extract, ATM. It counts as binding. The conditions noted are these: HeLa nuclear extract; 150 μM wortmannin or 1 mM ATP. The method, then: as §1, §2, §3

The target of the next data set is mTOR (FRAP) (Homo sapiens, UniProt P42345). The conditions noted are these: cited from earlier work.
The target of a further data set is T3, Flag-tagged ATR (Homo sapiens, UniProt Q13535).
T3 construct: expressed in transfected cells
As to the kind of experiment: ATR kinase assay (GST-RAD17 substrate). Format: biochemical. The conditions noted are these: 3-4 experiments, read from a graph. How it is done:
After the incubation, the beads were washed in 500 μl kinase buffer.
ATR kinase assay: ATR precipitates were incubated with 27.5 μl of kinase buffer+1 μl 32P γ-ATP (1 μCi)+1.5 μl GST-RAD17 substrate (1.5 μg) for exactly 15 min at 30° C. The reactions were stopped by adding 10 μl of 6×SDS sample buffer and boiling the sample for 8 min at 95° C.
The dried gel was either exposed overnight to Biomax film or in the phosphoimager cassette for several hours and quantified using the program Image Quant v1.2 from Molecular Dynamics, Sunnyvale, Calif. (USA). Curves were plotted in the program KaleidaGraph v3.5 (Synergy Software, Reading, Pa.) using the Hill equation. […]
After the kinase reactions were carried out, the samples were separated on a 5-12.5% gradient gel. […] Flag-ATR and labeling with biotin-wortmannin were detected by chemiluminescence using α-Flag M5 or streptavidin HRP antibody. The lower half of the gel was stained with coomassie, dried and analyzed by autoradiography.
Analysis of substrate phosphorylation by autoradiography allows evaluation of the kinase activity that remains after incubation with different amounts of biotin-wortmannin. […] In the lower lane, the amount of Flag-tagged ATR was determined by using a Flag specific antibody. This signal was used to normalize for equal loading to generate quantitative data. […]

The next data set concerns the target ATR (Homo sapiens, UniProt Q13535). The conditions noted are these: Sarkaria et al., 1998; cited from earlier work.
A short description of data set [1]: Stability in buffer systems by thin layer chromatography. Format: physicochemical. The conditions noted are these: most conditions tested (not 1 M Tris).
Procedure: For thin layer chromatography (TLC), Silica gel glass plates (0.25 mm) were used to separate different components in hexane:ethylacetate (1:2) as solvents. Components were visualized by illumination with long wave ultraviolet light and by dipping into an aqueous solution of ceric ammonium molybdate followed by heating.
Tris based (pH 7.5, 8)and Hepes (pH 7.5, 8) based buffer systems were tested for incubations for 30 min at 4° C. and 30° C.
In the next data set the test system is HEK 293T cells. As to the kind of experiment: Capability to enter intact cells (protein labeling after cell incubation). The conditions noted are these: 50 μM, 45 min. Format: cell-based, human. The method, then:
The media and the inhibitory compound were premixed to reduce toxicity and incubated on the cells for 45 min or 1 h.
After 45 min, the cells were harvested and then lysates were generated. 100 μg of protein was separated on a 5-12.5% gradient gel, transferred to PVDF membrane and either analyzed with α-wortmannin sera or with streptavidin HRP to detect biotin-wortmannin.

T2 sequence (Q13315 whole entry): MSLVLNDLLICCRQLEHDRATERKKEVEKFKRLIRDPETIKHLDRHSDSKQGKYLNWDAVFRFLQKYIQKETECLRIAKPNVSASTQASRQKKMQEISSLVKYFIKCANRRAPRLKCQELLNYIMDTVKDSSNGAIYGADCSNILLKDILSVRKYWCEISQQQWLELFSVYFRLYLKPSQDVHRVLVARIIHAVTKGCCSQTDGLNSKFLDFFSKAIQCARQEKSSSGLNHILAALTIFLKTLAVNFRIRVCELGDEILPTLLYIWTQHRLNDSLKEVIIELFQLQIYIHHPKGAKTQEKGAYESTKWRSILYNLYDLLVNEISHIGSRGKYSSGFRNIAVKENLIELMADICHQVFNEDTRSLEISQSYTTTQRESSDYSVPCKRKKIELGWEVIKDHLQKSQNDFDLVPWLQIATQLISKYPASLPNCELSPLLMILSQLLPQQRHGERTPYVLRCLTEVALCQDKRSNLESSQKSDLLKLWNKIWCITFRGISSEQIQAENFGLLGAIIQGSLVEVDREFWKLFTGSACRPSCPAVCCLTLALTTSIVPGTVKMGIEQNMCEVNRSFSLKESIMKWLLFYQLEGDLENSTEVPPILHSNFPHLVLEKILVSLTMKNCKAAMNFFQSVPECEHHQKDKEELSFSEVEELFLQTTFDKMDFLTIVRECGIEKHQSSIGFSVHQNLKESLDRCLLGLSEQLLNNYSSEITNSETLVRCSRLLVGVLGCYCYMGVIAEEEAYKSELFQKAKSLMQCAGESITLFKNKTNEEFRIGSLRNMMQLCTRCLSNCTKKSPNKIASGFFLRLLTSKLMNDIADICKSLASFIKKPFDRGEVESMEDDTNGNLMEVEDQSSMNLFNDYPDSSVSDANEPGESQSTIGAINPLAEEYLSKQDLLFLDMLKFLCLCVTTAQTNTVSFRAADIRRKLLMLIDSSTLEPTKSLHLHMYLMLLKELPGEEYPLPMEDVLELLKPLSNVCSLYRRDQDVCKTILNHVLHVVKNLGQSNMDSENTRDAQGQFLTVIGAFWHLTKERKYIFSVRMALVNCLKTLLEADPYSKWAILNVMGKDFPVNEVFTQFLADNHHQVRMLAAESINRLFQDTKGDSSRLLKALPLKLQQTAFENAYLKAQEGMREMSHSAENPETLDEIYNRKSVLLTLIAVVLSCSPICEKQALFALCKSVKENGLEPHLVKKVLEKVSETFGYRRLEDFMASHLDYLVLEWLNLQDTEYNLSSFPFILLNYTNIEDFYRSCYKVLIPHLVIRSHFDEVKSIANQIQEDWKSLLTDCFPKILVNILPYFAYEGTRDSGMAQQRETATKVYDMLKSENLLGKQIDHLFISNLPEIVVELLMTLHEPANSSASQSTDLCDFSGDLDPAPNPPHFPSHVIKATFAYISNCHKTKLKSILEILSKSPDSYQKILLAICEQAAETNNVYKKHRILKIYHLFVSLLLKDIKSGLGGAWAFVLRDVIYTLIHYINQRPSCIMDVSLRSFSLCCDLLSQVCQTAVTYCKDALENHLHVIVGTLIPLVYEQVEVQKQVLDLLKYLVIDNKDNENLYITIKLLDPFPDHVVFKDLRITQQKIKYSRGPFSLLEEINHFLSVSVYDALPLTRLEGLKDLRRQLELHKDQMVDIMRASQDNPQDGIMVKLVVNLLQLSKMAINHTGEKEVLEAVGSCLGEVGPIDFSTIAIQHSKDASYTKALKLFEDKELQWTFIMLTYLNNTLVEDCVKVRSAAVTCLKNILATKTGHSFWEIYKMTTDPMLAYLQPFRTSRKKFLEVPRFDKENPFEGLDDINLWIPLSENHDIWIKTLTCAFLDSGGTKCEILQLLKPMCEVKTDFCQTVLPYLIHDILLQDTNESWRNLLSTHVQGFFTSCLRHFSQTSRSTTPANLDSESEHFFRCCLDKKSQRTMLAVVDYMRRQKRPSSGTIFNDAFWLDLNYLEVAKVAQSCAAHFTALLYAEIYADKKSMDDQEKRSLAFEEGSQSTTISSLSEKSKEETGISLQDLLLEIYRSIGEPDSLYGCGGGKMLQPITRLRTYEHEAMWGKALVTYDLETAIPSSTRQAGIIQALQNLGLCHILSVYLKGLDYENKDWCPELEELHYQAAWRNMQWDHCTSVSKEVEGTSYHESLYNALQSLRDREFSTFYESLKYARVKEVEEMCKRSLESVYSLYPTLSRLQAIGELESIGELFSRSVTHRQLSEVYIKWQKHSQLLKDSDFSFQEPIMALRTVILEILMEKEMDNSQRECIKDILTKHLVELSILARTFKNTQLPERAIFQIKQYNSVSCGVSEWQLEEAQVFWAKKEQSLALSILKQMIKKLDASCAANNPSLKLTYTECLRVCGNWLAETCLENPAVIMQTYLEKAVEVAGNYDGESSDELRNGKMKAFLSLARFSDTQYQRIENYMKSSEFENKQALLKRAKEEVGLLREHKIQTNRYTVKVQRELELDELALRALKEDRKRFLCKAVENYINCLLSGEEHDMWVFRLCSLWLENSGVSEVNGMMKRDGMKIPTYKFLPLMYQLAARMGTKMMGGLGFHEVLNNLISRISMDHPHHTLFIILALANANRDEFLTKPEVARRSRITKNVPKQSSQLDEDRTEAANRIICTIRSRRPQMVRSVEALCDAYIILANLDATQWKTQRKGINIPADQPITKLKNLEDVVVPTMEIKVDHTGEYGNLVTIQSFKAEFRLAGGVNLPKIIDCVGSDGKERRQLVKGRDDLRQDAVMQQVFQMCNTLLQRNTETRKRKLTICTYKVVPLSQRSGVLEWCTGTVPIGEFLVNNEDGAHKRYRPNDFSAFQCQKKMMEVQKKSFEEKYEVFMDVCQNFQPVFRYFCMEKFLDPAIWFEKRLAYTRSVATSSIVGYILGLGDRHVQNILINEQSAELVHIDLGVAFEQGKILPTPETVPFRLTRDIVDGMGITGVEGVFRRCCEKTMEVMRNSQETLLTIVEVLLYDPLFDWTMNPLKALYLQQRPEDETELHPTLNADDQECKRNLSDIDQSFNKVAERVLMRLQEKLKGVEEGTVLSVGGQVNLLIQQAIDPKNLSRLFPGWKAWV

On to `COCC1OC(=O)c2coc3c2C1(C)C1=C(C3=O)C2CCC(=O)C2(C)CC1O` (stereo not shown) [11-O-desacetyl wortmannin], for which, on PI 3-kinase, the half-inhibitory concentration (IC50) was 16.7 nM. In addition, the figures for the “fold less effective than wortmannin towards PI 3-kinase” value with PI 3-kinase and with PI 3-kinase (listed as 0-11-desacetylwortmannin) were 4 fold and “about four”, respectively.

For the compound `Nc1ncnc2c1ncn2[C@@H]1O[C@H](COP(=O)(O)OP(=O)(O)OP(=O)(O)O)[C@@H](O)[C@H]1O` [ATP], the “effect of pretreatment on pull-down of DNA-PKcs with 30 μM biotin-wortmannin” value at DNA-PKcs was “did not show an effect”. For the same compound, the “effect of pretreatment on pull-down of ATM with 30 μM biotin-wortmannin” value on ATM is “did not show an effect”.

With `O=c1cc(N2CCOCC2)oc2c(-c3ccccc3)cccc12` [LY294002, 2-(4-morpholinyl)-S-phenyl-4H-1-benzopyran-4-one], at mTOR (FRAP), the concentration for half-maximal inhibition (IC50) is around 3000 nM.

On to `COC[C@H]1OC(=O)c2coc3c2[C@@]1(C)C1=C(C3=O)[C@@H]2CCC(=O)[C@@]2(C)C[C@H]1OC(C)=O` [wortmannin, Wortmannin], for which the half-maximal inhibitory concentration (IC50) at Flag-tagged ATR and on ATR was 1800 nM in each case. Moreover, in data set [1], the “time in large part stable in buffer” value was “at least 30 min”. Moreover, in the data set with HEK 293T cells, the “capability to enter into intact cells” value is recorded as “capable to enter into intact cells”.

By IC50 is commonly meant the concentration that gives 50% inhibition.

These data come from patent US20030194749A1 (priority 2002, published 2003).
